The values that follow come from ChEMBL document CHEMBL1201862, “PubChem BioAssay data set” (2004).

Common to all, as to experiment: growth of human tumour cells (NCI), 48 h
Experiment [1] has as its system BT-549.
The test system of experiment [2] is CCRF-CEM.
Experiment [3] relates to EKVX.
In experiment [4] the test system is HL-60.
Experiment [5] relates to MDA-MB-435.
The test system of experiment [6] is MDA-N.
In experiment [7] the test system is NCI-H23.
Experiment [8] relates to NCI-H522.
For experiment [9], the system named is SK-MEL-28.
For experiment [10], the system named is SK-MEL-2.
Experiment [11] concerns SK-OV-3.
Experiment [12] relates to SR.
The test system of experiment [13] is T47D.
Experiment [14] relates to TK-10.
Experiment [15] has as its system U-251.
The test system of experiment [16] is HCC 2998.
The subject of experiment [17] is HCT-15.
For experiment [18], the system named is MOLT-4.
For experiment [19], the system named is OVCAR-4.
The subject of experiment [20] is SF-539.

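The compound was tested at five concentrations on cells cultured in 96-well plates, with a 48-hour exposure period. GI50: concentration for 50% inhibition of growth.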 The source made the active and inactive calls. Rule as the data show it: active = GI50 up to about 1.1 µM and inactive = higher. Some results are limits rather than exact numbers.

With `COC(=O)[C@H]1CO[C@@H](C(C)(C)C)N1C(=O)N1C=CC(=O)C[C@@H]1C`, the GI50 in [1], in [2], in experiment [3], in experiment [4], in [5] and in [6] was > 100 µM (inactive) throughout. Also, the GI50 in experiment [7], in [8], in experiment [9], in experiment [10], in experiment [11] and in [12] was > 100 µM (inactive) in each case. Also, the GI50 in experiment [13], in [14] and in experiment [15] was > 100 µM (inactive) each time.
For `COc1ccc2c(c1)-c1c(c3ccccc3n1CCN1CCOCC1)CC2`, the GI50 in experiment [1] was 23 µM (inactive); in experiment [2] it was 22.4 µM (inactive); in [3], 16.4 µM (inactive); in experiment [16], 18.2 µM (inactive); in [17], 25.9 µM; in experiment [5], 34.5 µM (inactive). In addition, the GI50 in [6] was 36.7 µM (inactive); in [18], 13 µM (inactive); in experiment [7] it was 21.7 µM (inactive); in experiment [8] it was 15.3 µM (inactive); in experiment [19] it was 56.6 µM (inactive); in [20] it was 25 µM (inactive). Moreover, the GI50 in experiment [9] is 55.1 µM (inactive); in [10], 11 µM (inactive); in experiment [11] it was 53.1 µM (inactive); in experiment [12], 19.1 µM (inactive); in experiment [13] it was 21.5 µM (inactive); in experiment [14] it was 0.0363 µM (active). In addition, the GI50 in experiment [15] is 26 µM (inactive).
As to `C[C@]12[C@@H]3CC[C@H]1[C@@H](OC(=O)Nc1cc([N+](=O)[O-])cc([N+](=O)[O-])c1)C(=O)N2CC3`, the GI50 in experiment [1] was > 100 µM (inactive); in experiment [2], > 100 µM (inactive); in experiment [3] it was > 100 µM (inactive); in [16] it was > 100 µM (inactive); in experiment [17], > 100 µM; in [4], 62.8 µM (inactive). Besides, the GI50 in [5], in experiment [6], in [18], in experiment [7], in experiment [8] and in experiment [19] was > 100 µM (inactive) throughout. Besides, the GI50 in [9], in [10], in experiment [11], in experiment [12], in experiment [13] and in [14] was > 100 µM (inactive) each time. Further, in experiment [15], the GI50 is > 100 µM (inactive).
As for `O=C1C(c2c(O)[nH]c3ccc(Cl)cc23)=Nc2ccccc21`, the GI50 was 66.4 µM (inactive) in [1]; 27.4 µM (inactive) in experiment [2]; 5.07 µM (inactive) in [3]; 7.73 µM in experiment [17]; 28.8 µM (inactive) in experiment [4]; 4.3 µM (inactive) in experiment [5]. Further, the GI50 was 6.38 µM (inactive) in [6]; > 47 µM (inactive) in experiment [18]; 9.12 µM (inactive) in experiment [7]; 10.6 µM (inactive) in experiment [8]; 2.2 µM (inactive) in experiment [19]; 4.65 µM (inactive) in experiment [20]. Moreover, the GI50 in experiment [9] is > 100 µM (inactive); in experiment [10], 5.55 µM (inactive); in experiment [11] it was 3.08 µM (inactive); in experiment [12], 9.02 µM (inactive); in experiment [13] it was 3.7 µM (inactive); in experiment [14], 4.23 µM (inactive). Moreover, the GI50 in experiment [15] was 4.98 µM (inactive).
